Measured values reported in patent US10188605B2, “Nanoparticles and nanoparticle compositions” (priority 2010, dated 2019).
“And” between values parts separate entries of the source, which are not always exact repeats. Identical values can stand only once.

Key:
[1] = versus camptothecin; cited from earlier work
[2] = Critical micelle concentration of surfactant 1 (surface tension; pyrene I3/I1 fluorescence); assay type: physicochemical
Text: Pyrene was used as a surrogate for a hydrophobic drug because of its environmentally sensitive fluorescence. […] The intensity ratio between the third (˜384 nm) and the first band (˜372 nm), in particular, is sensitive to changes in the environment. […] The CMC of the surfactant is about 1.4×10^−4 M according to surface tension measurement and 1.5×10^−4 M, according to FIG. 15.

[3] = Release of entrapped pyrene from SCMs by fluorescence (I3/I1 ratio); assay type: physicochemical; conditions: uncrosslinked reference
Text: The intensity ratio between the third (˜384 nm) and the first band (˜372 nm), in particular, is sensitive to changes in the environment.

[4] = in water at 20° C.; cited from earlier work

CC[C@@](O)(C(=O)[O-])c1cc2n(c(=O)c1CO)Cc1cc3ccccc3nc1-2.[Na+] [CAM-Na]
biological activity relative to the parent drug [1]: one-tenth

C#CC[N+](CC#C)(CC#C)Cc1ccc(OCCCCCCCCCCCC)cc1.[Br-] [Compound 1, 4-(Dodecyloxy)benzyltripropargylammonium bromide]
critical micelle concentration ([2]; in water): 150 µM and 140 µM | CMC according to pyrene I3/I1 ratio (FIG. 15) ([2]; pyrene fluorescence): 150 µM | CMC according to surface tension measurement ([2]; surface tension): about 1.4×10^−4 M | pyrene I3/I1 in uncrosslinked surfactant below the CMC [3]: 0.70

CCCCCCCCCCCC[N+](C)(C)C.[Br-] [Dodecyltrimethyl ammonium bromide]
micellar aggregation number [4]: 55
